experiment: recombinant UMI read abundance after kanamycin selection (control-corrected) (log10(CPM+1)); higher = more efficient recombination; extreme values may be limits of the assay; sequences stand for … in AGTGCAGAGAAAATCGGCCAGTTTTCTCTGCCTGCAGTCCGCATGCCGTGGGACCCCTTGGGTTCTAACCTGTTGCCTAGATTTATGCAGCGGACTGCCTTTCTCCCAAAGTGATAAACCGG…AGGTTGGTTTCACT; site = the 11-nt donor
Method in brief: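 Pooled Escherichia coli screen of donor and donor-binding-loop pairs for the IS621 bridge recombinase. Each pair sits with a 12-nt UMI on a plasmid carrying a promoterless kanamycin gene. The library was co-electroporated with a target plasmid encoding a fixed target and T7-inducible recombinase, then plated with IPTG (0.07 mM) plus kanamycin, or unselected, each in two replicates. Recombinant UMIs were PCR-amplified across the donor–target junction and sequenced. Counts became CPM, averaged over replicates, scaled by control-derived factors and reported as log10(CPM+1).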

Row | Sequence | recombinant UMI read abundance (log10)
1 | TCTGCGGCATGGACCGGTTTTCCCGGTAATCCGTATTTGAT (site TCTGCGGCTAT) | 0.0332
2 | TCTGCGGCATGGACCGGTTTTCCCGGTAATCCGTATTTGTT (site TCTGCGGCTAA) | 0.0132
3 | TCTGTTCCATGGACCGGTTTTCCCGGTAATCCGTATTTGAG (site TCTGTTCCTCT) | 0.0103
4 | TCTTAAACATGGACCGGTTTTCCCGGTAATCCGTATTTGCA (site TCTTAAACTTG) | 0
5 | TCTTACACATGGACCGGTTTTCCCGGTAATCCGTATTTGCC (site TCTTACACTGG) | 0.565
6 | TCTTCAGCATGGACCGGTTTTCCCGGTAATCCGTATTTGTG (site TCTTCAGCTCA) | 0.0132
7 | TCTTCATCATGGACCGGTTTTCCCGGTAATCCGTATTTGTA (site TCTTCATCTTA) | 0.00251
8 | TCTTTCTCATGGACCGGTTTTCCCGGTAATCCGTATTTGCT (site TCTTTCTCTAG) | 0
9 | TGAAAATCATGGACCGGTTTTCCCGGTAATCCGTATTTGTG (site TGAAAATCTCA) | 1
10 | TGAAGGACATGGACCGGTTTTCCCGGTAATCCGTATTTGAC (site TGAAGGACTGT) | 2.4
11 | TGAATAACATGGACCGGTTTTCCCGGTAATCCGTATTTGCA (site TGAATAACTTG) | 1.38
12 | TGACCGACATGGACCGGTTTTCCCGGTAATCCGTATTTGAT (site TGACCGACTAT) | 0.561
13 | TGAGAGACATGGACCGGTTTTCCCGGTAATCCGTATTTGCG (site TAAGAGACTCG) | 2.07
14 | TGAGAGACATGGACCGGTTTTCCCGGTAATCCGTATTTGCG (site TCAGAGACTCG) | 0.426
15 | TGAGAGACATGGACCGGTTTTCCCGGTAATCCGTATTTGCG (site TGAGAGACTCG) | 2.22
16 | TGAGAGACATGGACCGGTTTTCCCGGTAATCCGTATTTGCG (site TTAGAGACTCG) | 1.19
17 | TGAGGTGCATGGACCGGTTTTCCCGGTAATCCGTATTTGGT (site TGAGGTGCTAC) | 0.98
18 | TGAGGTTCATGGACCGGTTTTCCCGGTAATCCGTATTTGAC (site TGAGGTTCTGT) | 2.17
19 | TGAGTCGCATGGACCGGTTTTCCCGGTAATCCGTATTTGTG (site TGAGTCGCTCA) | 0.474
20 | TGATAATCATGGACCGGTTTTCCCGGTAATCCGTATTTGCT (site CGATCATCTAG) | 0
21 | TGATAATCATGGACCGGTTTTCCCGGTAATCCGTATTTGCT (site TGATAATCTAG) | 2.45
22 | TGATTCCCATGGACCGGTTTTCCCGGTAATCCGTATTTGAC (site TGATTCCCTGT) | 0.794
23 | TGCAAGGCATGGACCGGTTTTCCCGGTAATCCGTATTTGGT (site TGCAAGGCTAC) | 0.43
24 | TGCAAGGCATGGACCGGTTTTCCCGGTAATCCGTATTTGGT (site TGCCAGGCTAC) | 0.0164
25 | TGCAAGGCATGGACCGGTTTTCCCGGTAATCCGTATTTGGT (site TGCGAGGCTAC) | 0.0243

Row | Sequence | recombinant UMI read abundance (log10)
26 | TGCAAGGCATGGACCGGTTTTCCCGGTAATCCGTATTTGGT (site TGCTAGGCTAC) | 0.0166
27 | TGCAATCCATGGACCGGTTTTCCCGGTAATCCGTATTTGTT (site CGGAATCCTAA) | 0.0106
28 | TGCAATCCATGGACCGGTTTTCCCGGTAATCCGTATTTGTT (site TGCAATCCTAA) | 0.672
29 | TGCAATTCATGGACCGGTTTTCCCGGTAATCCGTATTTGCC (site TACAATTCTGG) | 0
30 | TGCAATTCATGGACCGGTTTTCCCGGTAATCCGTATTTGCC (site TCCAATTCTGG) | 0
31 | TGCAATTCATGGACCGGTTTTCCCGGTAATCCGTATTTGCC (site TGCAATTCTGG) | 0.00516
32 | TGCAATTCATGGACCGGTTTTCCCGGTAATCCGTATTTGCC (site TTCAATTCTGG) | 0
33 | TGCACGACATGGACCGGTTTTCCCGGTAATCCGTATTTGCC (site TGCACGACTGG) | 1.52
34 | TGCACGTCATGGACCGGTTTTCCCGGTAATCCGTATTTGTC (site TGCACGTCTGA) | 1.26
35 | TGCACTGCATGGACCGGTTTTCCCGGTAATCCGTATTTGCA (site TGCACTGCTTG) | 0.198
36 | TGCCACGCATGGACCGGTTTTCCCGGTAATCCGTATTTGTC (site TGCCACGCTGA) | 2.07
37 | TGCCAGGCATGGACCGGTTTTCCCGGTAATCCGTATTTGGT (site TGCAAGGCTAC) | 0.016
38 | TGCCAGGCATGGACCGGTTTTCCCGGTAATCCGTATTTGGT (site TGCCAGGCTAC) | 0.00408
39 | TGCCAGGCATGGACCGGTTTTCCCGGTAATCCGTATTTGGT (site TGCGAGGCTAC) | 0.0315
40 | TGCCAGGCATGGACCGGTTTTCCCGGTAATCCGTATTTGGT (site TGCTAGGCTAC) | 0.0336
41 | TGCCATGCATGGACCGGTTTTCCCGGTAATCCGTATTTGGA (site TGCCATGCTTC) | 0.294
42 | TGCCGAACATGGACCGGTTTTCCCGGTAATCCGTATTTGAT (site TGCCGAACTAT) | 1.59
43 | TGCCGACCATGGACCGGTTTTCCCGGTAATCCGTATTTGTT (site TGCCGACCTAA) | 0.0263
44 | TGCCGTTCATGGACCGGTTTTCCCGGTAATCCGTATTTGAG (site TGCCGTTCTCT) | 0.00558
45 | TGCCTAACATGGACCGGTTTTCCCGGTAATCCGTATTTGAA (site TGCCTAACTTT) | 0.0425
46 | TGCCTAGCATGGACCGGTTTTCCCGGTAATCCGTATTTGTT (site AGCCTAGCTAA) | 0.014
47 | TGCCTAGCATGGACCGGTTTTCCCGGTAATCCGTATTTGTT (site CGCCTAGCTAA) | 0.0169
48 | TGCCTAGCATGGACCGGTTTTCCCGGTAATCCGTATTTGTT (site GGCCTAGCTAA) | 0.0245
49 | TGCCTAGCATGGACCGGTTTTCCCGGTAATCCGTATTTGTT (site TGCCTAGCTAA) | 0.0135
50 | TGCCTCTCATGGACCGGTTTTCCCGGTAATCCGTATTTGCG (site TGCCTCTCTCG) | 0.00512

Row | Sequence | recombinant UMI read abundance (log10)
51 | TGCGAGGCATGGACCGGTTTTCCCGGTAATCCGTATTTGGT (site TGCAAGGCTAC) | 0.35
52 | TGCGAGGCATGGACCGGTTTTCCCGGTAATCCGTATTTGGT (site TGCCAGGCTAC) | 0.0134
53 | TGCGAGGCATGGACCGGTTTTCCCGGTAATCCGTATTTGGT (site TGCGAGGCTAC) | 0.0084
54 | TGCGAGGCATGGACCGGTTTTCCCGGTAATCCGTATTTGGT (site TGCTAGGCTAC) | 0.242
55 | TGCGGAACATGGACCGGTTTTCCCGGTAATCCGTATTTGCG (site TGCGGAACTCG) | 0.885
56 | TGCGGCACATGGACCGGTTTTCCCGGTAATCCGTATTTGCC (site TGCGGCACTGG) | 1.44
57 | TGCGGCACATGGACCGGTTTTCCCGGTAATCCGTATTTGGA (site TGCGGCACTTC) | 0.0197
58 | TGCGGGCCATGGACCGGTTTTCCCGGTAATCCGTATTTGCT (site TGCGGGCCTAG) | 0
59 | TGCGGTTCATGGACCGGTTTTCCCGGTAATCCGTATTTGAA (site TGCGGTTCTTT) | 0.557
60 | TGCTACGCATGGACCGGTTTTCCCGGTAATCCGTATTTGGT (site TGCTAAGCTAC) | 0.00535
61 | TGCTACGCATGGACCGGTTTTCCCGGTAATCCGTATTTGGT (site TGCTACGCTAC) | 0.202
62 | TGCTACGCATGGACCGGTTTTCCCGGTAATCCGTATTTGGT (site TGCTAGGCTAC) | 0
63 | TGCTACGCATGGACCGGTTTTCCCGGTAATCCGTATTTGGT (site TGCTATGCTAC) | 0.00567
64 | TGCTAGCCATGGACCGGTTTTCCCGGTAATCCGTATTTGGT (site TGCTAGACTAC) | 0.00818
65 | TGCTAGCCATGGACCGGTTTTCCCGGTAATCCGTATTTGGT (site TGCTAGCCTAC) | 0.0034
66 | TGCTAGCCATGGACCGGTTTTCCCGGTAATCCGTATTTGGT (site TGCTAGGCTAC) | 0.0165
67 | TGCTAGCCATGGACCGGTTTTCCCGGTAATCCGTATTTGGT (site TGCTAGTCTAC) | 0.00984
68 | TGCTAGGCATGGACCGGTTTTCCCGGTAATCCGTATTTGCT (site TGCTAGGCTAA) | 0.0205
69 | TGCTAGGCATGGACCGGTTTTCCCGGTAATCCGTATTTGCT (site TGCTAGGCTAC) | 0.0125
70 | TGCTAGGCATGGACCGGTTTTCCCGGTAATCCGTATTTGCT (site TGCTAGGCTAG) | 0.521
71 | TGCTAGGCATGGACCGGTTTTCCCGGTAATCCGTATTTGCT (site TGCTAGGCTAT) | 0.00772
72 | TGCTAGGCATGGACCGGTTTTCCCGGTAATCCGTATTTGGA (site TGCTAGGCTAC) | 0.138
73 | TGCTAGGCATGGACCGGTTTTCCCGGTAATCCGTATTTGGA (site TGCTAGGCTCC) | 0.0137
74 | TGCTAGGCATGGACCGGTTTTCCCGGTAATCCGTATTTGGA (site TGCTAGGCTGC) | 0
75 | TGCTAGGCATGGACCGGTTTTCCCGGTAATCCGTATTTGGA (site TGCTAGGCTTC) | 0.261

From the supplement of paper PMC11208160
